Data reported in patent US20230158071A1, “TUMOR COMBINED IMMUNOTHERAPY” (CRAGE medical Co., Limited, priority 2018, published 2023).

Tested on: 806-mCD28z-CAR-T cells
Experiment: Flow cytometry (CellTrace) of CAR-T proliferation in co-culture with breast cancer cells
Assay type: cell-based, mouse
Settings: co-incubation 1:1, 16 hours
Experimental: The experimental groups are as follows: 806-mCD28z-CAR-T group (or denoted as 806-28Z), olaparib pretreatment group, and olaparib combined treatment group;
The olaparib pretreatment group comprises: 806-mCD28z-CAR-T+1 μM olaparib pretreatment group (or denoted as 806-28Z+Olaparib 1 μM pretreatment), 806-mCD28z-CAR-T+5 μM olaparib pretreatment group (or denoted as 806-28Z+Olaparib 5 μM pretreatment);
Olaparib combined treatment group comprises: 806-mCD28z-CAR-T+1 μM olaparib combined treatment group (or denoted as 806-28Z+Olaparib 1 μM), 806-mCD28z-CAR-T+5 μM olaparib combined treatment group (or denoted as 806-28Z+Olaparib 5 μM).
Before the co-incubation experiment, 806-mCD28z-CAR-T cells need to be stained with CellTrace dye. […]
Olaparib pretreatment group: different concentrations of olaparib (1 μM, 5 μM) are respectively added to a medium for culturing E0771-EGFRvIII or 4T1-EGFRvIII tumor cells, after culturing at 37° C. for 24 hours, the cells are treated with trypsin and resuspended in fresh medium. 806-mCD28z-CAR T cells in Example 1 are taken to co-incubate with E0771-EGFRVIII or 4T1-EGFRvIII cells pretreated with different concentrations of olaparib at a ratio of 1:1; 16 hours later, the proliferation of CAR-T cells and the expression levels of the T cell exhaustion-related proteins PD1, LAG3 and TIM3 on the surface of CAR-T cells are detected by flow cytometry. […]

O=C(c1cc(Cc2n[nH]c(=O)c3ccccc23)ccc1F)N1CCN(C(=O)C2CC2)CC1 [olaparib]
proliferation of CART cells (olaparib combined treatment group (1 μM, 5 μM), not statistically significant): slightly inhibited
proliferation of CART cells (olaparib pretreatment group (1 μM, 5 μM)): not significantly affected
